From US9227982B2 (NOVARTIS AG, priority 2011, dated 2016)
Read-outs that look alike come from different tables or passages of the source.

Tests used:
[1] = system: Wnt ligand-induced signaling; assay: Wnt-responsive Super-TOpFlash (STF) luciferase reporter gene assay in HEK293 cells; assay type: cell-based; details: 20% Wnt3A conditioned medium, read-out: HEK293STF IC50
Description: Cellular Reporter Gene Assay to Determine Compound Inhibition of Wnt Signaling Activity
Compound activity in inhibiting Wnt ligand-induced signaling was measured using a Wnt-responsive Super-TOpFlash (STF) luciferase reporter gene assay in HEK293 cells. On day 1 of the assay, cells were plated at a density of 8000 cells per well of 384-well plate in 25 μl medium containing 5% fetal bovine serum (FBS). On the second day, […] condition medium (CM) produced from mouse L cells was added to the cells to induce Wnt signaling, followed by addition of 5 μL of compounds each well in 10-point serial dilution. On the third day, the luciferase activity was measured by the Bright-Glo™ Luciferase Assay System following manufacture's protocol (Promega, E2620). The Inhibition was calculated as: (Maximum Wnt-induced signaling−Sample)/(Maximum Wnt-induced signaling−Background)*100. “Maximum Wnt-induced signaling” is the STF signal level induced by 20% Wnt3A CM without compound; and “Background” is the STF signal level without the addition of Wnt3A CM or compound.

[2] = target: human tankyrase 1 PARP catalytic domain, TNKS1P (Homo sapiens (Human), UniProt O95271); assay: TNKS1 autoparsylation enzymatic assay (LC/MS detection of nicotinamide); assay type: biochemical; details: 20 nM enzyme, 250 μM β-NAD+, 60 min, read-out: TNKS1 AP IC50
Chain of human tankyrase 1 PARP catalytic domain, TNKS1P (O95271 1112-1317): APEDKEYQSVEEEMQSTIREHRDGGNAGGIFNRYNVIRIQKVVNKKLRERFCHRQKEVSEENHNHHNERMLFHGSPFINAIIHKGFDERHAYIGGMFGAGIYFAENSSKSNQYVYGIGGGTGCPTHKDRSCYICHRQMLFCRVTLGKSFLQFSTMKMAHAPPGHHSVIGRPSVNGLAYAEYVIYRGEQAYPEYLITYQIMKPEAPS
Text: (§1) The human tankyrase 1 PARP catalytic domain, TNKS1P, was cloned into a pDONR221 vector using the Invitrogen Gateway Technology. This entry clone was then subcloned into the destination vector pDEST20 to obtain the N-terminal Glutathione S-transferase (GST)-tagged fusion protein. GST-TNKS1P was then expressed in Sf21 cells using the Invitrogen baculovirus expression system (Invitrogen-Bac-to-Bac® Baculovirus Expression System, Version D). The protein was purified by a GSTrap column (GE Healthcare). The N-terminal GST-tagged tankyrase 2 protein PARP domain, TNKS2P, was cloned, expressed, and purified in a similar manner. Human PARP1 (Cat. No. 4668-100-01) and activated DNA (Cat. No. 4671-096-06) were purchased from Trevigen, Inc. PARP2 (Cat. No. ALX-201-064-C020) was purchased from Alexis Biochemical.
The % Inhibition was calculated as: (Control−Sample)/(Control−Background)*100. “Control” is the average value of 8 wells without compound; and “Background” is the average of 8 wells mixed with 5× quenching solution measured prior to initiation of the reaction.

[3] = target: TNKS2 (GST-tagged tankyrase 2 PARP domain, TNKS2P) (Homo sapiens (Human), UniProt Q9H2K2); assay: TNKS2 autoparsylation enzymatic assay (LC/MS detection of nicotinamide); assay type: biochemical; details: 20 nM enzyme, 250 μM β-NAD+, 60 min, read-out: TNKS2 AP IC50
Chain of TNKS2 (GST-tagged tankyrase 2 PARP domain, TNKS2P) (Q9H2K2 959-1164): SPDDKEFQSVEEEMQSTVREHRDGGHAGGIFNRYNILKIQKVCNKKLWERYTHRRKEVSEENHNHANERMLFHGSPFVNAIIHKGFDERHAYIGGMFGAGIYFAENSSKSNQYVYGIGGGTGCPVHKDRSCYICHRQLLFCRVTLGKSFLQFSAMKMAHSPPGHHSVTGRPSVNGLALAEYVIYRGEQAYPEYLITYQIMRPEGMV
Text: as §1, with “manner.” for “manner. Human PARP1 (Cat. No. 4668-100-01) and activated DNA (Cat. No. 4671-096-06) were purchased from Trevigen, Inc. PARP2 (Cat. No. ALX-201-064-C020) was purchased from Alexis Biochemical.”
The % Inhibition was calculated as: (Control−Sample)/(Control−Background)*100.

| Compound | IC50 ([1]; Homo sapiens) [µM] | IC50 [2] [µM] | IC50 [3] [µM] | IC50 [1] [µM] |
| --- | --- | --- | --- | --- |
| O=C(CCc1c[nH]c2ccccc12)N(Cc1nc2c(c(=O)[nH]1)COCC2)Cc1cccs1 [Example 3, 3-(1H-Indol-3-yl)-N-(4-oxo-3,5,7,8-tetrahydro-4H-pyrano[4,3-d]pyrimidin-2-ylmethyl)-N-thiophen-2-ylmethyl-propionamide] | 9.31 ± 3.9 | – | – | – |
| O=C(CCc1cccc(F)c1)N(Cc1nc2c(c(=O)[nH]1)COCC2)Cc1cccs1 [Example 5, 3-(3-Fluorophenyl)-N-((4-oxo-4,5,7,8-tetrahydro-3H-pyrano[4,3-d]pyrimidin-2-yl)methyl)-N-(thiophen-2-ylmethyl)propanamide] | – | 1.58 ± 0.014 | – | – |
| O=C(CCc1ccccc1O)N(Cc1nc2c(c(=O)[nH]1)COCC2)Cc1cccs1 [Example 6, 3-(2-Hydroxy-phenyl)-N-(4-oxo 3,5,7,8-tetrahydro-4H-pyrano[4,3-d]pyrimidin-2-ylmethyl)-N-thiophen-2-ylmethyl-propionamide] | – | 5.19 ± 0.227 | – | – |
| O=C(CCc1ccc(O)cc1)N(Cc1nc2c(c(=O)[nH]1)COCC2)Cc1cccs1 [Example 8, 3-(4-Hydroxy-phenyl)-N-(4-oxo-3,5,7,8-tetrahydro-4H-pyrano[4,3-d]pyrimidin-2-ylmethyl)-N-thiophen-2-ylmethyl-propionamide] | – | 1.42 ± 0.04 | – | – |
| O=c1[nH]c(CN(Cc2cccs2)S(=O)(=O)Cc2ccccc2)nc2c1COCC2 [Example 9, N-((4-Oxo-4,5,7,8-tetrahydro-3H-pyrano[4,3-d]pyrimidin-2-yl)methyl)-1-phenyl-N-(thiophen-2-ylmethyl)methanesulfonamide] | 0.9 ± 0.23 | – | – | – |
| O=c1[nH]c(CN(Cc2cccs2)S(=O)(=O)CCc2ccccc2)nc2c1COCC2 [Example 10, 2-Phenyl-ethanesulfonic acid (4-oxo-3,5,7,8-tetrahydro-4H-pyrano[4,3-d]pyrimidin-2-ylmethyl)-thiophen-2-ylmethyl-amide] | 2.43 ± 0.94 | – | – | – |
| O=C(CCc1ccncc1)N(Cc1nc2c(c(=O)[nH]1)COCC2)Cc1cccs1 [Example 11, N-((4-Oxo-4,5,7,8-tetrahydro-3H-pyrano[4,3-d]pyrimidin-2-yl)methyl)-3-(pyridin-4-yl)-N-(thiophen-2-ylmethyl)propanamide] | – | 4.17 ± 0.26 | – | – |
| O=C(CCc1ccccc1)N(Cc1nc2c(c(=O)[nH]1)COCC2)CC1CCCC1 [Example 13, N-Cyclopentylmethyl-N-(4-oxo-3,5,7,8-tetrahydro-4H-pyrano[4,3-d]pyrimidin-2-ylmethyl)-3-phenyl-propionamide] | 4.09 ± 1.29 | 4.78 ± 0.36 | 0.995 ± 0.094 | – |
| O=C(CCc1ccccc1)N(Cc1nc2c(c(=O)[nH]1)COCC2)Cc1ccccc1F [Example 14, N-(2-Fluorobenzyl)-N-((4-oxo-4,5,7,8-tetrahydro-3H-pyrano[4,3-d]pyrimidin-2-yl)methyl)-3-phenylpropanamide] | 4.09 ± 0.1 | 5.61 ± 0.24 | 1.05 ± 0.05 | – |
| CCN(Cc1nc2c(c(=O)[nH]1)COCC2)C(=O)CCc1ccccc1 [Example 15, N-Ethyl-N-((4-oxo-4,5,7,8-tetrahydro-3H-pyrano[4,3-d]pyrimidin-2-yl)methyl)-3-phenylpropanamide] | – | > 19 | – | – |
| CC(C)N(Cc1nc2c(c(=O)[nH]1)COCC2)C(=O)CCc1ccccc1 [Example 16, N-Isopropyl-N-((4-oxo-4,5,7,8-tetrahydro-3H-pyrano[4,3-d]pyrimidin-2-yl)methyl)-3-phenylpropanamide] | 34.9 | > 19 | 5.39 ± 1.63 | – |
| CC(C)(C)C(=O)CN(Cc1nc2c(c(=O)[nH]1)COCC2)C(=O)CCc1ccccc1 [Example 17, N-(3,3-Dimethyl-2-oxobutyl)-N-((4-oxo-4,5,7,8-tetrahydro-3H-pyrano[4,3-d]pyrimidin-2-yl)methyl)-3-phenylpropanamide] | 14.3 ± 1 | 17.1 ± 2 | 2.99 ± 0.036 | – |
| O=C(CCc1ccccc1)N(Cc1nc2c(c(=O)[nH]1)COCC2)Cc1nccs1 [Example 19, N-((4-Oxo-4,5,7,8-tetrahydro-3H-pyrano[4,3-d]pyrimidin-2-yl)methyl)-3-phenyl-N-(thiazol-2-ylmethyl)propanamide] | 8.56 ± 0.42 | 11.4 ± 0.4 | 2.03 ± 0.04 | – |
| O=C(CCc1ccccc1)N(Cc1nc2c(c(=O)[nH]1)COCC2)Cc1ncco1 [Example 20, N-(Oxazol-2-ylmethyl)-N-((4-oxo-4,5,7,8-tetrahydro-3H-pyrano[4,3-d]pyrimidin-2-yl)methyl)-3-phenylpropanamide] | 14.3 ± 4 | 4.6 ± 0.2 | 1.7 ± 0.03 | – |
| O=C(CCc1ccccc1)N(Cc1nc2c(c(=O)[nH]1)COCC2)Cc1ccc(Cl)s1 [Example 21, N-((5-Chlorothiophen-2-yl)methyl)-N-((4-oxo-4,5,7,8-tetrahydro-3H-pyrano[4,3-d]pyrimidin-2-yl)methyl)-3-phenylpropanamide] | 1.97 ± 0.56 | 1.61 ± 0.11 | 0.318 ± 0.009 | – |
| O=C(CCc1ccccc1)N(Cc1nc2c(c(=O)[nH]1)COCC2)Cc1cncs1 [Example 22, N-((4-Oxo-4,5,7,8-tetrahydro-3H-pyrano[4,3-d]pyrimidin-2-yl)methyl)-3-phenyl-N-(thiazol-5-ylmethyl)propanamide] | 18.2 ± 4.5 | 17.5 ± 1 | 3.48 ± 0.71 | – |
| O=C(CCc1ccccc1)N(CCO)Cc1nc2c(c(=O)[nH]1)COCC2 [Example 23, N-(2-Hydroxy-ethyl)-N-(4-oxo-3,5,7,8-tetrahydro-4H-pyrano[4,3-d]pyrimidin-2-ylmethyl)-3-phenyl-propionamide] | > 50 | 16.93 ± 0.02 | 2.68 ± 0.077 | – |
| C[C@@H](c1ccccc1)N(Cc1nc2c(c(=O)[nH]1)COCC2)S(=O)(=O)Cc1ccccc1 [Example 24, (S)—N-((4-Oxo-4,5,7,8-tetrahydro-3H-pyrano[4,3-c]pyrimidin-2-yl)methyl)-1-phenyl-N-(1-phenylethyl)methanesulfonamide] | 15.7 ± 0.8 | 18.1 ± 1.9 | 3.12 ± 0.06 | – |
| C[C@H](c1ccccc1)N(Cc1nc2c(c(=O)[nH]1)COCC2)S(=O)(=O)Cc1ccccc1 [Example 25, (R)—N-((4-Oxo-4,5,7,8-tetrahydro-3H-pyrano[4,3-d]pyrimidin-2-yl)methyl)-1-phenyl-N-(1-phenylethyl)methanesulfonamide] | 23.2 ± 7.9 | 9.08 ± 0.76 | 1.85 ± 0.06 | – |
| O=C(CCc1ccccc1F)N(Cc1ccc[nH]1)Cc1nc2c(c(=O)[nH]1)COCC2 [Example 26, N-((1H-Pyrrol-2-yl)methyl)-3-(2-fluorophenyl)-N-((4-oxo-4,5,7,8-tetrahydro-3H-pyrano[4,3-d]pyrimidin-2-yl)methyl)propanamide] | 5 ± 0.72 | 1.17 ± 0.12 | 0.235 ± 0.024 | – |
| N-((4-Oxo-4,5,7,8-tetrahydro-3H-pyrano[4,3-d]pyrimidin-2-yl)methyl)-3-(pyridin-4-yl)-N-(thiophen-2-ylmethyl)propanamide [Example 12] | – | 14.6 ± 0.4 | – | 41 ± 1.6 |
